“Also recorded” adds a separate entry of the source.
Legend:
wild-type Drosophila [1] = assay: Drosophila high throughput screen: effect of compound on glucose-mediated delay in pupariation; assay type: in vivo, Drosophila melanogaster; settings: for significant levels of pupariation / high levels of pupariation: 1 M glucose, FIG. 2; for effect on glucose-mediated developmental delay / delay in pupariation: high glucose (1 M glucose in growth media)
Description: Accordingly, methods and related articles of composition for high throughput screening assays involve the preparation of microtiter plates each with multiple wells, wherein each well initially contains one or more wild type Drosophila embryos and an amount of a high glucose Drosophila growth medium. The embryos develop while feeding on the high glucose growth medium. The precise age of the embryos at the time they are plated matters less than the fact that they are all about the same age, to permit accurate evaluation of the possible effects of the candidate compound on larval development.
To prepare the microtiter plates, for example, 96-well microtiter plates are used, such as those commonly commercially available and typically used for various laboratory assay techniques, including other high throughput drug assay techniques. A suitable example is a Falcon #3912 flexible 96-well plate. However, other multiple-well microtiter plates can be used.
(§1) Into each well is pipetted 50-400 μl of either standard (control) or high glucose (experimental) Drosophila growth medium. A range of 50-400 μl is a balance between (1) providing sufficient food so as not to place undue feeding stress on the developing flies and (2) providing sufficient air space for the third larval instars to find sufficient wall space to pupate. Any one of several standard Drosophila growth medium recipes as known in the art of breeding Drosophila for research can be used. A known recipe for a standard growth medium includes, for example, water: 1 liter, cornmeal: 61 grams, yeast: 32 grams, agar: 9.3 grams, glucose: 129 grams (or molasses: 67 grams), methyl p-hydrobenzoate: 2.7 grams, and propionic acid: 0.05 liters. A high glucose growth medium is, for example, such a standard Drosophila growth medium supplemented with an additional 1 mole glucose. For example, to prepare a high glucose growth medium, an additional 180 grams of glucose is added to the recipe for standard growth medium as just described. Another embodiment, for example, of a standard growth medium is that prepared as follows: 1 gram agar, 8 grams brewers yeast, 2 grams yeast extract, 2 grams peptone, 3 grams sucrose, 6 grams glucose, 0.05 grams MgSO4×6H20, 0.05 grams CaCl2×2H20, 600 microliters propionic acid, 1 milliliter 10% p-Hydroxy-benzoic acid methyl ester in 95% ethanol, brought to 100 milliliters with water. A high glucose version of this medium is made, for example, by combining 75 milliliters of this medium with 25 milliliters of a 4 molar glucose solution in water.
A candidate compound, or cocktail of more than one compound, that has been selected for screening is dissolved in EtOH or prepared in DMSO/Aqueous solution. In an exemplary embodiment, EtOH is used. Although DMSO can be used, it can be toxic if it reaches final concentrations of more than 0.3% of the growth medium. The compound in solution is added and allowed to diffuse through the growth medium for an initial period of about 16-24 hours. Wild type Drosophila embryos are collected en masse and, after the initial period of diffusion of the candidate compound through the growth medium, sorted several to a well. In an exemplary embodiment, five to twenty embryos are sorted to each well. However, the number of embryos in each well can easily vary, provided that no more embryos than will flourish in the well are used. The number of embryos per well will also be influenced by the need to obtain a sufficient number of data points to make the test meaningful.
Once the Drosophila embryos are placed into each well on the growth medium, they hatch out and begin feeding after a second period of about 24 hours, bringing the final amount of diffusion time for the subject compound to about 40-48 hours. A period of about 24-48 hours is sufficient for full diffusion of most compounds. […] Finally, each well is sealed with a sealing film such as “Aeraseal Sealing Film” (available from Sigma-Aldrich, St. Louis, Mo.; Sigma #A-9224). […]

wild-type Drosophila [2] = tested on: wild-type Drosophila; design: species or system Drosophila melanogaster; settings: in vivo
Description: as §1
Alternatively, the experimental growth medium is any growth medium containing an excess amount of a sugar or sugars selected from hexose sugars such as fructose, sorbitol, galactose and glucosamine, and from complex sugars such as sucrose, lactose or maltose.
The addition of 1 molar (1 M) glucose to the Drosophila growth media delayed pupariation, which reached significant levels at day 10 and high levels at day 11.
The developmental arrest can be screened as described in the Examples, infra. Glucose, for example, induces readily observable delays in pupariation as determined by the timing of significant eclosion, and peak eclosion. For example, control Drosophila embryos show significant eclosion beginning at day 8, while Drosophila embryos exposed to high glucose growth medium show significant eclosion beginning at day 11 (1 molar glucose). Similarly, peak eclosion is delayed, for example, from day 10 in controls, to day 12 (1 molar glucose). Thus, candidate compounds are screened by observing changes to the delay in significant eclosion and peak eclosion, as compared to the developmental delay induced by high glucose.
Accordingly, the ability of the hexose sugars fructose, sorbitol, galactose and glucosamine was tested by adding amounts of each sugar to the standard Drosophila growth medium. Fructose and sorbitol induced a 48-hour developmental delay at concentrations similar to those at which glucose induced developmental delay (data not shown).

[3] = 0.375 mg/ml of food, 1 molar glucose, FIG. 3
[4] = 0.75 mg/ml of food, 1 molar glucose, FIG. 3

COc1ccc(Cl)cc1C(=O)NCCc1ccc(S(=O)(=O)NC(=O)NC2CCCCC2)cc1 [glyburide]
significant levels of pupariation (wild-type Drosophila [1]; 0.25 mg per ml of growth media, no-drug 1 M glucose control approximately day 12): 8 days
high levels of pupariation (wild-type Drosophila [1]; 0.25 mg per ml of growth media, no-drug 1 M glucose control day 13-14): ≤ 10 days
high levels of pupariation (wild-type Drosophila [1]; 1 mg per ml of growth media): 11 days
significant levels of pupariation (wild-type Drosophila [1]; 1 mg per ml of growth media): 11 days
effect on glucose-mediated developmental delay / delay in pupariation (wild-type Drosophila [1]): demonstrated an ability to ameliorate glucose-mediated developmental delay; also recorded: reduced glucose-mediated delay in pupariation

CC(C)[C@H]1CC[C@H](C(=O)N[C@H](Cc2ccccc2)C(=O)O)CC1 [nateglinide]
effect on rate of development (wild-type Drosophila [1]; [3]): partially restored the rate of development
pupariation high rates beginning (wild-type Drosophila [1]; [3]): 9 days
effect on rate of development (wild-type Drosophila [1]; [4]): intermediate result
pupariation high levels beginning (wild-type Drosophila [1]; [4]): 9 days
effect on glucose-mediated developmental delay / delay in pupariation (wild-type Drosophila [1]): demonstrated an ability to ameliorate glucose-mediated developmental delay

OC[C@@H](O)[C@@H](O)[C@H](O)[C@@H](O)CO [sorbitol]
developmental delay induced (wild-type Drosophila [2]; Drosophila melanogaster): 48 h

O=C[C@H](O)[C@@H](O)[C@@H](O)[C@H](O)CO [galactose]
concentration at which toxicity is demonstrated (wild-type Drosophila [2]; Drosophila melanogaster): 0.3 M

O=C(CO)[C@@H](O)[C@H](O)[C@H](O)CO [fructose]
developmental delay induced (wild-type Drosophila [2]; Drosophila melanogaster): 48 h

N[C@H]1C(O)O[C@H](CO)[C@@H](O)[C@@H]1O (stereo partly shown) [glucosamine]
concentration inducing a developmental delay (as low as) (wild-type Drosophila [2]; Drosophila melanogaster): 3000 µM
developmental delay with progressively higher levels (wild-type Drosophila [2]): progressively longer developmental delays
larval emergence (wild-type Drosophila [2]): most larvae failed to emerge

— patent US7642066B2, “High throughput pharmaceutical screening using drosophila” (Washington University, priority 2004, dated 2010)
